Patent US20230072421A1, “TARGETED RADIOPHARMACEUTICALS FOR THE DIAGNOSIS AND TREATMENT OF PROSTATE CANCER” (Bayer AS, priority 2019, published 2023)

Tests used:
VCaP cells = experiment: Cell proliferation assay (CellTiter-Glo, 5-day exposure), VCaP; format: cell-based; conditions: 4000 cells/well, Th-227 labelled at 375 kBq/nmol, mean of 1 to 6 experiments
Procedure, shortened: (§1)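 Thorium-227-labeled PSMA small-molecule ligands were applied for 5 days to prostate cancer lines plated overnight at 1000 cells/well (22Rv1, C4-2, LNCaP) or 4000 cells/well (VCaP). CellTiter-Glo luminescence gave viability at day 0 in sister plates and again after exposure.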

C4-2 cells = experiment: Cell proliferation assay (CellTiter-Glo, 5-day exposure), C4-2; format: cell-based; conditions: C4-2, 1000 cells/well, Th-227 labelled at 375 kBq/nmol, mean of 1 to 6 experiments
Procedure, shortened: as §1

22Rv1 cells = experiment: Cell proliferation assay (CellTiter-Glo, 5-day exposure), 22Rv1; format: cell-based; conditions: 22Rv1, 1000 cells/well, Th-227 labelled at 375 kBq/nmol, mean of 1 to 6 experiments
Procedure, shortened: as §1

LNCaP cells = experiment: Cell proliferation assay (CellTiter-Glo, 5-day exposure), LNCaP; format: cell-based, human; conditions: LNCaP, 1000 cells/well; Th-227 labelled at 375 kBq/nmol; 5-day exposure; mean of 1 to 6 experiments
Procedure, shortened: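 Cells were seeded at 4000/well (VCaP) or 1000/well (22Rv1, C4-2, LNCaP), incubated overnight at 37 °C, 5% CO2, then treated in triplicate with serial dilutions of Th-227-labeled PSMA ligands (375 kBq/nmol). Viability was read by CellTiter-Glo luminescence at day 0 and after 5 days.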

[1] = molecular target: T1, PSMA-expressing LNCaP cells (Homo sapiens, UniProt Q04609); experiment: Internalization assay (membrane bound and internalized Th-227); format: cell-based; conditions: 10 nM radiolabeled compound, Th-227 at 375 kBq/nmol, triplicates; for Internalized in LNCaP fmol/10^6 cells 30 min / Membrane bound in LNCaP fmol/10^6 cells 30 min: 30 min incubation; for Internalized in LNCaP fmol/10^6 cells 2 h / Membrane bound in LNCaP fmol/10^6 cells 2 h: 2 h incubation
T1 construct: PSMA-expressing LNCaP cells; endogenous in cells; host or cells: LNCaP
Description: For internalization assays 24 well plates (#3526, Corning) were coated with 200 μl Poly-L-Lysine (0.1 mg/ml, #3438-100-01, Fa. Cultrex) per well for 2 h at 37° C. […] Cells were incubated at 37° C. and 5% CO2 over night. On the following day 400 μl of the media were removed and a total of 200 μl growth medium added supplemented with PSMA-SMOLs labeled with Th-227 at 375 kBq/nmol in triplicates. Radiochemical purity of the labeling was analyzed by instant thin layer chromatography and found to be above 70% for all compounds used. The final concentration of radiolabeled SMOLs was in the test wells was 10 nM. Cells were incubated for 30 min or 2 h. After the incubation time supernatants were taken off and cells washed with PBS. Thereafter cells were washed twice with 0.2 ml 50 mM Glycine-HCl buffer (#55097, Sigma Aldrich) and once with PBS and the washing solutions combined in counting vials (#TK75-018, Fa. Corning) and subjected to gamma counting (1470 Wizard automatic gamma counter, Wallac). The resulting counts were attributed to membrane bound radioactivity. Cells were then lysed with 500 μl 0.3N NaOH (#181691.1211, Fa. PanReac AppliChem ITW Reagents) followed by another wash with 500 μl PBS. The NaOH lysate as well as the final wash were combined in vials and subjected to gamma counting as described above. Measured radioactivity was attributed to internalized fraction. Results were calculated as fmol of Th-227 per/10^cells in the membrane bound and internalized fractions from triplicate values.

[2] = system: LNCaP human prostate cancer cells; experiment: LNCaP xenograft efficacy study (T/C tumor area); format: in vivo, SCID mice
Procedure, shortened: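 SCID mice with testosterone pellet bearing s.c. flank LNCaP xenografts (5×10^6 cells in Matrigel) were treated i.v. with a defined radioactive dose once tumors reached 35-50 mm^2 (n=10/group). Tumor area (caliper, longest diameter × perpendicular) measured 2-3× weekly; T/C ratio calculated from tumor areas when vehicle group closed.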

[3] = Example V, day 27 after start of therapy, once 750 kBq/kg
[4] = Example II, 750 kBq/kg weekly for 5 weeks, day 120

T1 sequence (Q04609 whole entry): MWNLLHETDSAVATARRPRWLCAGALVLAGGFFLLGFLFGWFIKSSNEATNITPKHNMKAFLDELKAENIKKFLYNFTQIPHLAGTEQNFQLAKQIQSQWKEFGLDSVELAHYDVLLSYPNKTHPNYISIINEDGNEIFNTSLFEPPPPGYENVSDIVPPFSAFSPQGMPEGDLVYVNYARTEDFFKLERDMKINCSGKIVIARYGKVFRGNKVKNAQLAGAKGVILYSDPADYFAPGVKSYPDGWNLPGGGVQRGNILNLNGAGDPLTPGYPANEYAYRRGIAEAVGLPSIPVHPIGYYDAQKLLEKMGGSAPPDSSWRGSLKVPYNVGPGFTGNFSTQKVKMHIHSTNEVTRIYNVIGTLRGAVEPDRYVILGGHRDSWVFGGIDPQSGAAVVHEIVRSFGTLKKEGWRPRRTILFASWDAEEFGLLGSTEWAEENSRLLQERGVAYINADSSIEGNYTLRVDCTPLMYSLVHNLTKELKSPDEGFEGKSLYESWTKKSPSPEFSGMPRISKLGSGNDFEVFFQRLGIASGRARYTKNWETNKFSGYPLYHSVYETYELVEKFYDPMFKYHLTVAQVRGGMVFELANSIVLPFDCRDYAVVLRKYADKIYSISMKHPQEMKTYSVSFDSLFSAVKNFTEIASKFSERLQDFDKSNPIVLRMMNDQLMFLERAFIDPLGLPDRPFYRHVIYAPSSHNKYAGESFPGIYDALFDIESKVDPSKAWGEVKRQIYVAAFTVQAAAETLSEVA

Row | Compound | Proliferation assay on cancer cell lines by TTCs Default Pivot #3 IC50 [kBq/mL] VCap 4000cells 375kBq/nmol (mean) (VCaP cells) [kBq/mL] | Proliferation assay on cancer cell lines by TTCs Default Pivot #3 IC50 [kBq/mL] C4-2 1000cells 375kBq/nmol (mean) (C4-2 cells) [kBq/mL] | Proliferation assay on cancer cell lines by TTCs Default Pivot #3 IC50 [kBq/mL] 22Rv1 1000cells 375kBq/nmol (mean) (22Rv1 cells) [kBq/mL] | Proliferation assay on cancer cell lines by TTCs Default Pivot #3 IC50 [kBq/mL] LnCap 1000cells 375kBq/nmol (mean) (LNCaP cells) [kBq/mL] | Internalized in LNCaP fmol/10^6 cells 30 min [1] [fmol/10^6 cells] | Membrane bound in LNCaP fmol/10^6 cells 30 min [1] [fmol/10^6 cells] | Internalized in LNCaP fmol/10^6 cells 2 h [1] [fmol/10^6 cells] | Membrane bound in LNCaP fmol/10^6 cells 2 h [1] [fmol/10^6 cells] | T/Carea ([2]; Example IV, day 36 after start of therapy, once 1 MBq/kg) | T/Carea [2, 3] | Mean tumor size [2, 4] [mm^2] | Tumor response [2, 4] | T/Carea ([2]; Example II, day 33 after start of therapy, 750 kBq/kg weekly for 5 weeks) | T/Carea ([2]; Example III, day 64 after start of therapy, single treatment 1.5 MBq/kg)
1 | O=C([O-])CN1CCN(CC(=O)[O-])CCN(CC(=O)NCC2CCC(C(=O)NC(Cc3ccc4ccccc4c3)C(=O)NCCCCC(NC(=O)NC(CCC(=O)O)C(=O)O)C(=O)O)CC2)CCN(CC(=O)[O-])CC1.[227Th+4] [Example 1-B-D-227Th, [^227Th]Thorium-(3S,10S,14R)-3-[(naphthalen-2-yl)methyl]-1,4,12-trioxo-1-{(1r,4S)-4-[(2-{4,7,10-tris[(carboxy-kappaO)methyl]-1,4,7,10-tetraazacyclododecan-1-yl-kappa^4N^1,N^4,N^7,N^10}acetamido)methyl]cyclohexyl}-2,5,11,13-tetraazahexadecane-10,14,16-tricarboxylate] | 4.52 | 3.15 | 1.28 | 0.49 | 3 | 16 | 12 | 30 | 0.81 | 0.91 |  |  |  | 
2 | O=C([O-])CN1CCN(CC(=O)[O-])CCN(CC(=O)NCC2CCC(C(=O)NC(Cc3ccc4ccccc4c3)C(=O)NCCCCC(NC(=O)NC(CCC(=O)O)C(=O)O)C(=O)O)CC2)CCN(CC(=O)[O-])CC1.[227Th+4] [Example 1-B-227Th, [^227Th]Thorium (3S,10S,14S)-3-[(naphthalen-2-yl)methyl]-1,4,12-trioxo-1-{(1r,4S)-4-[(2-{4,7,10-tris[(carboxy-kappaO)methyl]-1,4,7,10-tetraazacyclododecan-1-yl-kappa^4N^1,N^4,N^7,N^10}acetamido)methyl]cyclohexyl}-2,5,11,13-tetraazahexadecane-10,14,16-tricarboxylate] | 0.38 | 0.17 | 0.71 | 0.03 | 55 | 237 | 189 | 438 |  | 0.29 | 20 | full response | 0.18 | 0.51
